Data: patent US20240057599A1, “METHODS FOR IMPROVING FRUIT QUALITY” (The State of Israel, Ministry of Agriculture & Rural …, priority 2021, published 2024)

Experiments:
Assay type in all cases: in vivo
[1] = tested on: White (Sifra) potato tubers; experiment: Lignin production at the cut (Calcofluor white fluorescence); conditions: 8 mM dip, one-week post-treatment, vs control
Procedure: White (Sifra) potato tubers were dipped in water or 8 mM Phe for 1 min, and dried. The tubers were stored at 20° C. for 2 days. Each tuber was cut (2 cm length, 2 cm deep, 2 mm wide). One week later the curing of the cut was documented.

Mango (Shelly) fruits = experiment: Preharvest spray, red coloration and TSS in mango
From the text: FIGS. 26A-26C include vertical bar graphs showing the effect of preharvest spray treatment on red coloration and TSS in Mango (Shelly) fruits. Red color surface (%; 26A), red color intensity (26B) and TSS (% Brix; 26C) were examined under preharvest treatments with 0.01%, 0.06%, […], or 0.24% phenylalanine (Phe).
(§1) Further, improvement of fruit coloration was also shown in grapes (FIG. 28).

[2] = tested on: Mango fruits (Tali and Shelly); experiment: ROS accumulation in injured mango fruits; conditions: postharvest 8 mM; injured fruit; vs non-treated injured fruit
Procedure: FIGS. 31A-31C include a fluorescent micrograph (31A) and vertical bar graphs showing that postharvest treatment of Mango fruits (Tali and Shelly) with 8 mM phenylalanine reduces accumulation of reactive oxygen species (ROS) in the peel (31B) and pulp (31C) of treated injured fruits compared to control injured fruit (non-treated). […] (31A) Visualization conducted 20 minutes post induced injury. (31B-31C) ROS quantification 7 days post induced injury.
Further, the inventors have shown that postharvest treatment as disclosed herein reduces ROS (reactive oxygen species) accumulation in fruit injured postharvest (FIG. 31).

Mango (Tali) fruits = experiment: Aroma-associated VOC levels in dipped mango fruits; conditions: pulp; dipped in 8 mM; 11 days at 22° C.; vs non-treated
Procedure: FIGS. 30A-30G include vertical bar graphs showing that a […] treatment of mango fruits with 8 mM phenylalanine increases the levels of aroma-associated VOCs. Mango (Tali) fruits were dipped in 8 mM phenylalanine and after 11 days of storage at 22° C. the profile of volatiles in the fruit […] was examined. Concentration of the following volatile aroma substances was examined (presented as μg/gFW): (30A) α-Pinene; (30B) 3-Carene; (30C) D-Limonene; (30D) Gurjunene; (30E) α-Terpinolene; (30F) α-Phellandrene; and (30G) Caryophyllene. Further, the inventors have shown that postharvest treatment as disclosed herein improves fruit aroma. The investors have dipped Mango fruits, and 11 days after storage at 22° C., the levels of aroma-associated VOCs were determined. Indeed, postharvest treatment with an effective amount of phenylalanine induced a significant increase in the levels of all tested VOCs (FIG. 30).

apple fruits (Jonathan) [3] = experiment: Red coloration of apple fruits after preharvest treatment; conditions: 8 mM, 1 or 2 weeks preharvest
Procedure: (§2) Mango or apple trees were treated 1 week or 2 weeks pre-harvest with either 8 mM of phenylalanine or with 0.2% prohydrojasmon ('blush'). Fruits were harvested from the external area of the tree, wherein fruits are exposed to the sunlight (photon flux of 1,500±200 μmol·m^-2 sec^-1). After harvest: (a) mango fruits were stored for 3 weeks at 12° C., and for another week at 22° C. (e.g., shelf life); and (b) apple fruits were stored for 3 months at 0° C., and for another week at 22° C. (e.g., shelf life). Surface area of the red color was evaluated as percentage, and red intensity was evaluated on a scale of 0-5. Each mango fruit was assessed for percentage of red surface area on fruit for each treatment at different time points (harvest, after cold storage at 12° C. and after shelf life at 22° C.). Similarly, red intensity was evaluated for each mango fruit using a visual rating scale, where 0=no red color, 1=faint red color, and 5=very intense red color. Fifty fruit were evaluated per treatment. The skin color (hue) of 15 mango fruit was measured for each treatment using a CR-400/410 Chromometer (Konicka Minolta, Osaka, Japan) on the equatorial line of each fruit at the […] point. […] Chlorophyll, anthocyanin, and flavonoid content were measured by the Multiplex III fluorescence detector (Force A, Orsay, France), which consists of 12 fluorescence signals. […]

apple fruits (Jonathan) [4] = experiment: Sensory analysis and Brix of apple fruits and juice after preharvest treatment
Procedure: Apple—Apple trees were treated with: 8 mM phenylalanine 1 week or 2 weeks before harvest; or with 0.2 prohydrojasmon (also known as ‘blush’). Fruits were harvested from the external area of the tree. After harvest, fruits were stored for 3 months at 0° C., wherein sensory analysis by a panel of 20 tasters was performed, for both slices fruit and for juice extracted therefrom. Brix values were also determined.

[5] = tested on: Muscat grapes and Petit Verdot grapes; experiment: Sensory analysis and Brix of grapes and juice after preharvest treatment; conditions: for Brix values of grapes and/or juice: 8 mM preharvest, vs control
Procedure: Grapes—Muscat grapes and Petit Verdot grapes were treated with 8 mM phenylalanine for: (i) 1 week or 2 weeks; and (ii) 1 week, 2 weeks, or 3 weeks, before harvest, and their combination, respectively. Sensory analysis by a panel of 20 tasters was performed, for the juice extracted from the fruits, and Brix, and % acidity (calibrated according to citric acid) values were also determined. In the case of muscat grapes, intact fruits were also analyzed (e.g., by the panel, Brix, and % acidity).

[6] = tested on: Red (Memphis) and white (Sifra) potato tubers; experiment: Scratch curing in potato tuber; conditions: for scratch curing (scale of 0-3): 8 mM dip 1 min
Procedure: Red (Memphis) and white (Sifra) potato tubers were dipped in water or 8 mM Phe for 1 min, and dried. The tubers were stored at 20° C. for 2 days. Each tuber was scratched (2 cm length, and 1 cm wide) in 3 spots. One week and 2 weeks later the curing of the scratch was evaluated on a scale of 0-3, the recovery of the red color was evaluated on a scale of 0-3, and the weight loss was measured.

Starking and Anna apples = experiment: Enzymatic browning of sliced apple fruits after preharvest treatment; conditions: 0.12%
From the text: FIGS. 29A-29E include micrographs showing the effect of preharvest treatment on decay parameters in Starking (29A-29B) and Anna (29C-29E) apples. In control fruits, enzymatic browning (i.e., oxidation) was highly evident (29A, and 29C).
Further, the inventors have examined the effect of preharvest treatment with phenylalanine on enzymatic browning, i.e., oxidation, in a fruit.

grapes (Skarlota) = experiment: Preharvest spray, red coloration in grapes
From the text: FIG. 28 includes a vertical bar graph showing the effect of preharvest spray treatment on red coloration (represented as index 0-5) in grapes (Skarlota). […] Further, improvement of fruit coloration was also shown in grapes (FIG. 28).

[7] = tested on: Red (Memphis) and white (Sifra) potato tubers; experiment: Cut curing in potato tuber; conditions: 8 mM dip; for weight loss after cutting: statistically significant 14 days post-treatment
Procedure: Red (Memphis) and white (Sifra) potato tubers were dipped in water or 8 mM Phe for 1 min, and dried. The tubers were stored at 20° C. for 2 days. Each tuber was cut (2 cm length, 2 cm deep, 2 mm wide) in 3 spots. One week and 2 weeks later the curing of the cut was evaluated on a scale of 0-3, and the weight loss was measured.
Red (Memphis) and white (Sifra) potato tubers were dipped in water or 8 mM Phe for 1 min, and dried. The tubers were stored at 20° C. for 2 days. Each tuber was cut (2 cm length, 2 cm deep, 2 mm wide). Two weeks later the superficial and internal curing were documented.

mango fruits [8] = experiment: Sensory analysis by a panel of 20 tasters, mango fruits and juice; conditions: for quality of juice extracted from mango fruits: preharvest application, 2020
Procedure: (§3) Mango—unripe Mango fruits were harvested and dipped in 4-8 mM phenylalanine for a period of 30 seconds. Fruits were stored at 22° C. until ripening (Days 11-15), wherein sensory analysis by a panel of 20 tasters was performed. Further, Brix, and % acidity (calibrated according to citric acid), and firmness (by Newton units) values were determined in 5 different fruits.

mango fruits [9] = experiment: Brix values of mango fruits and juice
Procedure: as §3

[10] = tested on: Apple (Starking Delicious) fruits; experiment: Preharvest spray, red coloration and TSS in apple
Procedure: FIGS. 27A-27D include vertical bar graphs showing the effect of preharvest spray treatment on red coloration and TSS in Apple (Starking Delicious) fruits. […] In 27D, TSS was evaluated at time 0 (TO), after cold storage (CS), and after time at shelf conditions (e.g., shelf-life (SL)).
as §1

mango fruits [11] = experiment: Red coloration of mango fruits after preharvest treatment; conditions: Shelly and Kent; 8 mM, 1 or 2 weeks preharvest
Procedure: as §2

[12] = preharvest, 0.06% by weight (~3 mM) or more
[13] = white Muscat grapes, preharvest application, 2020
[14] = 0.12% (~6 mM) preharvest spray, compared to 0.01%

In the case of N[C@@H](Cc1ccccc1)C(=O)O [phenylalanine], the “lignin production (fluorescent intensity)” value [1] is reported as “increased lignin production”, the “red coloration (red color surface %, red color intensity)” value (Mango (Shelly) fruits; 0.01% (~0.5 mM) preharvest spray) is reported as “ineffective” and the “TSS (% Brix)” value (Mango (Shelly) fruits; 0.01% preharvest spray) is reported as “no contribution”. The TSS (Mango (Shelly) fruits; [12]) was “substantially improved”, the fruit coloration (Mango (Shelly) fruits; [12]) was “substantially improved” and the “ROS accumulation in the peel” value [2] was “substantially less ROS”. The “ROS accumulation in the pulp” value [2] was “substantially less ROS”, the “level of 3-Carene” value (Mango (Tali) fruits) was “significantly elevated” and the “level of Caryophyllene” value (Mango (Tali) fruits) was “significantly elevated”. For the same molecule, the “level of D-Limonene” value (Mango (Tali) fruits) was “significantly elevated”, the “level of Gurjunene” value (Mango (Tali) fruits) was “significantly elevated” and the “level of α-Phellandrene” value (Mango (Tali) fruits) was “significantly elevated”. The “level of α-Pinene” value (Mango (Tali) fruits) was “significantly elevated”, the “level of α-Terpinolene” value (Mango (Tali) fruits) was “significantly elevated” and the “formation of red coloration in apple fruits” value (apple fruits (Jonathan) [3]) was “effectively induce the formation of red coloration”. For the same molecule, the “Brix values in apple fruits” value (apple fruits (Jonathan) [4]; 8 mM preharvest, vs control) was “greater than the control”, the “sensory quality of apple fruits and/or juice (sweeter, less acidic, better aroma)” value (apple fruits (Jonathan) [4]; tasters' panel, 8 mM 1 or 2 weeks preharvest, after 3 months at 0° C.) was “better quality” and the “texture of apple fruits” value (apple fruits (Jonathan) [4]; tasters' panel, 8 mM preharvest) was “better texture”. For the same molecule, the “Brix values of grapes and/or juice” value ([5]; Muscat grapes) was “increased Brix values”, the “Brix values of grapes and/or juice” value ([5]; Petit Verdot grapes) was “increased Brix values” and the “quality of juice extracted from grapes” value ([5]; Petit Verdot grapes, preharvest application, 2020) was “quality improvement”. For the same molecule, the flavor of grapes [5, 13] was “flavor improvement”, the “quality of juice extracted from grapes” value [5, 13] was “quality improvement” and the “weight loss after scratching” value ([6]; Memphis (red), 8 mM dip) was “reduced”. For the same molecule, the “scratch curing (scale of 0-3)” value ([6]; Memphis (red), 7 and 14 days post-treatment) was “significantly improved”, the “color curing, recovery of the red color (scale of 0-3)” value ([6]; Memphis (red), 8 mM dip, 7 and 14 days post-treatment) was “significantly improved” and the “scratch curing (scale of 0-3)” value ([6]; Sifra (white), 7 and 14 days post-treatment) was “significantly improved”. The “weight loss after scratching” value ([6]; Sifra (white), 8 mM dip, statistically significant) was “reduced”, the “enzymatic browning (oxidation)” value (Starking and Anna apples; Anna apples, 2 weeks or 4 weeks preharvest) was “effective in reducing enzymatic browning” and the “enzymatic browning (oxidation)” value (Starking and Anna apples; Starking apples, 2 weeks preharvest) was “effective in reducing enzymatic browning”. For the same molecule, the red coloration (grapes (Skarlota); 0.01% (~0.5 mM) preharvest) was “ineffective”, the “red color index (0-5)” value (grapes (Skarlota); [14]) was “substantially more effective” and the “cut curing (scale of 0-3)” value ([7]; Memphis, 14 days) was “to a less extent”. The “weight loss after cutting” value ([7]; Memphis) was “reduced”, the “internal curing of the cut” value ([7]; Memphis, two weeks later) was “improved compared to control” and the “cut curing (scale of 0-3)” value ([7]; Sifra, 7 and 14 days post-treatment, vs control) was “improved significantly”. The “weight loss after cutting” value ([7]; Sifra) was “reduced”, the “superficial and internal curing of the cut” value ([7]; Sifra, two weeks later) was “improved compared to control” and the “quality of juice extracted from mango fruits” value (mango fruits [8]; Kent) was “quality improvement”. The “quality of juice extracted from mango fruits” value (mango fruits [8]; Shelly) was “quality improvement”, the “sensory quality of mango fruits (sweeter, less acidic, better aroma, firmness, general appreciation)” value (mango fruits [8]; tasters' panel, postharvest dip 4-8 mM (FIGS. 1-3) or preharvest application (FIGS. 7, 12), vs control) was “better quality” and the “Brix values in juice extracted from mango fruits” value (mango fruits [9]; juice of treated mango fruits vs control (FIGS. 8, 13)) was “greater than the control”. The “Brix values in mango fruits” value (mango fruits [9]; treated mango fruits vs control (FIGS. 1-3, 7, 12)) was “greater than the control”, the “TSS (% Brix)” value ([10]; 0.01% preharvest spray) was “comparable to negative control” and the “red coloration (red color surface %, red color intensity)” value ([10]; 0.01% preharvest spray) was “comparable to negative control”. The “TSS (% Brix)” value [10, 14] was “substantially more effective”, the “red coloration (red color surface %, red color intensity)” value [10, 14] was “substantially more effective” and the “formation of red coloration in mango fruits” value (mango fruits [11]) was “effectively induce the formation of red coloration”.
